Laboratory results from patent US5420289A, “Substituted indole-, indene-, pyranoindole- and tetrahydrocarbazole-alkanoic acid derivatives as inhibitors of PLA2 and lipoxygenase” (American Home Products Corporation, priority 1993, dated 1995).

Assays:
[1] = system: synthesis of LTB4 by rat glycogen-elicited polymorphonuclear leukocytes (PMN); test: inhibition of LTB4 synthesis by rat glycogen-elicited PMN (Example 72); format: cell-based, rat (female Wistar); conditions: Leukocyte; for inhibition at 10000 µM: at 10 mM, negative number denotes potentiation
Source text: This is especially true with respect to 5,12-diHETE, which is also denoted as LTB4 lsee Ford-Hitchinson, J. Roy. Soc. Med., 74, 831 (1981)]. Compounds which inhibit the PLA2 -mediated release of arachidonic acid thereby effectively prevent the oxidation of arachidonic acid to the various leukotriene products via the lipoxygenase cascade. Accordingly, the specificity of action of PLA2 inhibitors can be determined by the activity of test compounds in this assay, which measures the ability of compounds to inhibit the synthesis of LTB4 by rat glycogen-elicited polymorphonuclear leukocytes (PMN) in the presence of exogenous substrate.
The assay is carded out as follows:
(§1) Rat polymorphonuclear leukocytes (PMNs) are obtained from female Wistar rats (150-200 g) which receive an injection of 6% glycogen (10 ml i.p.). Rats are sacrificed 18-24 hours post injection by CO2 asphyxiation and the elicited cells are harvested by peritoneal lavage using physiological saline (0.9% NaC1). The exudate is centrifuged at 400 ×g for 10 minutes. The supernatant fluid is discarded and the cell pellet is resuspended to a concentration of 2.0×10^7 cells/mL in HBSS containing Ca^++ and Mg^++ and 10 mM L-cysteine.
(§2) To 1 mL aliquots of cell suspension, test drugs or vehicle are added, then preincubated at 37° C. for 10 minutes. A23187 (1 mM), [^3 H]-AA (3.0 mCi/mL) and unlabeled AA (1 mM) are then added and the samples are further incubated for 10 minutes. The reaction is terminated by centrifugation and pelleting cells. Supernatants are then analyzed by HPLC analysis on a 15 cm×4.6 mm ID supelcosil LC-18 (Supelco)(3M) column, using a two solvent system at a flow rate of 1.4 mL total flow as follows:
Gradient: (system is equilibrated with Solvent A)
Percent solvent changes are accomplished in a linear fashion.
Injections: […] of each supernatant is injected directly onto column and ^3 H arachidonic acid metabolites are monitored using an on-line radioactivity detector (Ramona, IN/U S, Fairfield, NJ).
Standards: 10^4 -2.0×10^4 dpm of eicosanoids of interest are injected in […] EtOH cocktail.
Co-chromatography with standard [^3 H] leukotriene B4 (LTB4) in medium of stimulated PMN exposed to drug is compared to that found in medium of stimulated cells exposed to no drug, generating percent inhibition.
Results are expressed as percent inhibition at a given compound dose or as an IC50 value.

[2] = system: cyclooxygenase (PGE2 synthesis) in rat polymorphonuclear leukocytes (PMN); test: inhibition of PGE2 synthesis (cyclooxygenase) by rat glycogen-elicited PMN (Example 73); format: cell-based, rat (female Wistar); conditions: Leukocyte, * (negative) denotes a potentiation; for inhibition at 10000 µM: at 10 mM, read-out: % Inhibition (PGE2 synthesis); for inhibition at 500 µM: at 0.5 mM
Experimental: as §1, §2
In this assay, the procedure of Example 72 is carried out as described. However, in order to determine cyclooxygenase activity, the samples are cochromatographed with authentic reference [^3 H]-PGE2.
The results be calculated as in Example 72 and presented below: […]

[3] = molecular target: T1, human synovial fluid PLA2 (Homo sapiens, UniProt P14555); test: in vitro isolated phospholipase A2 assay, human synovial fluid PLA2 (Example 74); format: biochemical; parameters: inhibition / % Inhibition, HSF (human synovial fluid): dose or concentration left out as unconfirmed; conditions: for IC50: Table III, read-out: IC50 HSF (human synovial fluid); for inhibition: read-out: % Inhibition, HSF (human synovial fluid)
T1 sequence (P14555 21-144): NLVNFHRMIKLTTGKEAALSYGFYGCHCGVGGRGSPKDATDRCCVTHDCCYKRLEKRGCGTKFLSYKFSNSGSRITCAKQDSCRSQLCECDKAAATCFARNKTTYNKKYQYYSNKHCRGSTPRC
Method in brief: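 Human synovial fluid PLA2 (purified) acts on ³H-arachidonate-labelled E. coli substrate, 10 minutes at 37° C with shaking; stopped with tetrahydrofuran. Released arachidonic acid is isolated on NH2 columns, eluted with tetrahydrofuran/2% acetic acid and quantitated by β-counting against a total-counts sample.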

[4] = system: paw edema induced by PLA2 from the diamond back cotton mouth snake (A. piscivorus piscivorus); test: in vivo PLA2 murine paw edema assay (Example 75); parameters: species or system mouse (male CD-1); conditions: for ED50 at +10 min.: p.o., at +10 min after PLA2, standard drugs
Experimental: The ability of the compounds of the invention to inhibit paw edema induced by the exogenous administration of PLA2 is measured in the in vivo PLA2 murine paw edema assay.
The assay is carried out as follows:
Non-fasted, male CD-1 mice (8 weeks old; 31-36 grams) are placed in plastic boxes in groups of six. The right hind paw volume is measured using mercury plethysmography (zero time). Compounds are dosed orally (0.5 mL of 0.5% Tween-80) 1 or 3 hours prior to PLA2 injection or intravenously (0.2 mL in 0.3% dimethylsulfoxide/saline) 3 minutes prior to PLA2 injection. A solution of purified PLA2, from the diamond back cotton mouth snake (A. piscivorus piscivorus) is prepared in saline at a concentration of 6 mg/mL. Fifty (50) uL (0.3 mg) of this PLA2 solution is injected subcutaneously into the right hind paw with a plastic 1 mL plastic syringe (27 gauge, "1" needle). Paw volume of the injected paw is measured again at 10 minutes, 30 minutes and 60 minutes after PLA2 injection. Animals are euthanized with CO2 at the completion of the study.
The paw edema is calculated by subtracting the zero time volume from the volume recorded at each time period. Mean paw edema for each treatment group is then calculated and expressed as (mL±S.E.). Drug effects are expressed as a percent change from control (vehicle) values. Statistical significance is determined by a one-way analysis of variance with LSD comparison to control (p<0.05). ED50 's are determined using repression analysis.

[5] = system: paw edema induced by PLA2 from the diamond back cotton mouth snake (A. piscivorus piscivorus); test: in vivo PLA2 murine paw edema assay (Example 75); parameters: species or system mouse (male CD-1)
human platelet PLA2 = molecular target: T2, human platelet PLA2 (Homo sapiens, UniProt P14555); test: in vitro isolated phospholipase A2 assay, human platelet PLA2 (Example 74); format: biochemical; parameters: dose or concentration left out as unconfirmed; conditions: read-out: % Inhibition, HP (human platelet)
T2 construct: Semi-purified human platelet acid extract PLA2; from tissue; host or cells: human platelets (semi-purified acid extract)
T2 sequence (P14555 21-144): T1 sequence (P14555 21-144)
Experimental: The compounds of the invention are tested in an in vitro isolated phospholipase A2 assay to determine the ability of the test compounds to inhibit the release of arachidonic acid from an arachidonic acid-containing substrate by the action of phospholipase A2 enzyme from human and non-human sources.
This assay is carried out as follows:
Into a 15 mL polypropylene tube are added the following:
^6 Two human PLA2 enzymes are used:
a) Semi-purified human platelet acid extract PLA2 (in 10 mM
sodium acetate buffer, pH 4.5). Remove protein precipitate by
centrifugation at about 2200 rpm for 10 minutes.
Incubate the 100mL reaction mixture for 10 minutes at 37° C. in a shaking water bath. The reaction is terminated by the addition of 2 mL tetrahydrofuran, followed by vortexlag. NH2 columns (100 mg/mL--Analytichem International) are conditioned with 0.5 mL tetrahydrofuran followed by 0.5 mL tetrahydrofuran/water (2 mL:0.1 mL, v/v).
The sample is loaded onto the columns and slowly drawn through them. The hydrolyzed arachidonic acid retained in the columns is eluted therefrom with 1 mL tetrahydrofuran/glacial acetic acid (2%). The arachidonic acid is transferred to scintillation vials and quantitated by b-counting analysis. A "total counts" sample is prepared by pipetting […] ^3 H-arachidonate E. coli directly into a scintillation vial to which is added 1 mL tetrahydrofuran. 10 mL aquasol (scintillation cocktail) is added to all samples. [formula]

Compound `CSc1ccc(/C=C2/C(C)=C(CC(=O)O)c3cc(OCc4ccc5ccccc5n4)ccc32)cc1` [Example 2, 2-Methyl-3-[[4-(methylthio)phenyl]methylene]-6-(2-quinolinylmethoxy)-3H-indene-1-acetic acid] has an inhibition at 10000 µM [1] of 96%, an inhibition at 10000 µM [2] of 92% and an IC50 [3] of 3.6 µM. The “% Change in Edema” value ([4]; 10 mg/kg i.v., 10 min) was -39%, the “% Change in Edema” value ([4]; 10 mg/kg i.v., 30 min) was -43% and the “% Change in Edema” value ([4]; 10 mg/kg i.v., 60 min) was -37%. The “% Change in Edema” value ([4]; 100 mg/kg p.o., 10 min) was -6%, the “% Change in Edema” value ([4]; 100 mg/kg p.o., 30 min) was -22% and the “% Change in Edema” value ([4]; 100 mg/kg p.o., 60 min) was “+18%”.
With Luffarrellolide [reference compound] the “ED50 at +10 min.” value [4] was “Not Active”.
With `COc1cccc2c1cc([N+](=O)[O-])c1c(C(=O)O)cc3c(c12)OCO3` [Aristolochic Acid, reference compound] the “ED50 at +10 min.” value [4] was “Not Active”.
With `C[C@@H]1C[C@H]2[C@@H]3CCC4=CC(=O)C=C[C@]4(C)[C@@]3(F)[C@@H](O)C[C@]2(C)[C@@]1(O)C(=O)CO` [Dexamethasone] the “ED50 at +10 min.” value ([5]; p.o. 3 hr, at +10 min after PLA2) was 10 mg/kg.
`CCCCCCOc1ccc2c(c1)c(CC(=O)O)c(C)n2Cc1ccc(Cl)cc1` [Example 19, 1-[(4-Chlorophenyl)methyl]-5-(hexyloxy)-2-methyl-1H-indole-3-acetic acid] was tested, and the inhibition (human platelet PLA2) was 71%, the inhibition [3] was 45% and the “% Change in Edema” value ([5]; 30 mg/kg i.p., 30 min) was -30%. For the same compound, the “% Change in Edema” value ([5]; 60 mg/kg i.p., 30 min) was -34%.
In the case of `COc1ccc2c(c1)c(CC(=O)O)c(C)n2C(=O)c1ccc(Cl)cc1` [indomethacin, reference compound], the IC50 [3] is reported as 145 µM, the “% Change in Edema” value ([5]; 10 mg/kg p.o., 10 min) is reported as -32% and the “% Change in Edema” value ([5]; 10 mg/kg p.o., 30 min) is reported as -31%. The “% Change in Edema” value ([5]; 10 mg/kg p.o., 60 min) was -42%.
`CC1=C(CC(=O)O)c2cc(OCc3ccc4ccccc4n3)ccc2C1=Cc1ccc(OCc2ccc3ccccc3n2)cc1` [Example 41, 2-Methyl-5-(2-quinolinylmethoxy)-1-[[4-(2-quinolinylmethoxy)phenyl]methylene]-1H-indene-3-acetic acid] showed an inhibition at 10000 µM [1] of 100%, an inhibition at 500 µM [2] of -21% and an inhibition (human platelet PLA2) of 90%. It also gave an inhibition [3] of 3.8%.
Work on `CC1=C(CC(=O)O)c2cc(OCc3ccc4ccccc4n3)ccc2/C1=C\c1ccc(Cl)cc1` [Example 1, 3-[(4-Chlorophenyl)methylene]-[2-methyl-6-(2-quinolinylmethoxy)]-3H-indene-1-acetic acid] yielded an inhibition at 10000 µM [1] of 96%, an inhibition at 10000 µM [2] of 81% and an IC50 [3] of 9.7 µM. The “% Change in Edema” value ([4]; 10 mg/kg i.v., 10 min) was -6%, the “% Change in Edema” value ([4]; 10 mg/kg i.v., 30 min) was -9% and the “% Change in Edema” value ([4]; 10 mg/kg i.v., 60 min) was -40%. For the same compound, the “% Change in Edema” value ([4]; 100 mg/kg p.o., 10 min) was “+4%”, the “% Change in Edema” value ([4]; 100 mg/kg p.o., 30 min) was -27% and the “% Change in Edema” value ([4]; 100 mg/kg p.o., 60 min) was -6%.
Work on `CC1=C(CC(=O)O)c2cc(F)ccc2C1=Cc1ccc(OCc2ccc3ccccc3n2)cc1` [Example 4, 5-Fluoro-2-methyl-1-[[4-(2-quinolinylmethoxy)phenyl]methylene]-1H-indene-3-acetic acid] yielded an inhibition at 500 µM ([1]; at 0.5 mM) of 92%, an inhibition at 500 µM [2] of 7% and an inhibition (human platelet PLA2) of 58%. The inhibition [3] was 48%.
For `COc1ccc2cc([C@H](C)C(=O)O)ccc2c1` [Naproxen, reference compound], the “ED50 at +10 min.” value [4] was 18 mg/kg.
